Earlier results in patent US20230323509A1, “Weak Acid Lixiviants for Recovery of Alkaline Earth Metals” (LIXIVIA, INC., priority 2020, published 2023).
Where two headings read alike, the source gives them in different places.

[1] = acid listed without dissociation step index

SMILES: CC#CC(=O)O [2-butynoic acid]
- pKa [1]: 2.62

SMILES: CCC(=O)C(=O)O [2-oxobutanoic acid]
- pKa [1]: 2.5

SMILES: CC(O)CC(=O)O (stereo not shown) [3-hydoxybutanoic acid]
- pKa [1]: 4.7

SMILES: CCOCC(=O)O [ethoxyacetic acid]
- pKa [1]: 3.65

SMILES: O=C(O)CCCC(=O)O [glutaric acid]
- pKa (dissociation step (1)): 4.32
- pKa (dissociation step (2)): 5.42

SMILES: CC(C(=O)O)C(=O)O [methylmalonic acid]
- pKa (dissociation step (1)): 3.07

SMILES: CC(CC(=O)O)C(=O)O (stereo not shown) [methylsuccinic acid]
- pKa (dissociation step (1)): 4.13
- pKa (dissociation step (2)): 5.64

SMILES: O=C(O)CC(=O)C(=O)O [oxaloacetic acid]
- pKa (dissociation step (1)): 2.55
- pKa (dissociation step (2)): 4.37

SMILES: CCCCC(=O)O [pentanoic acid]
- pKa [1]: 4.83

SMILES: O=c1[nH]c(=O)c2[nH]c(=O)[nH]c2[nH]1 [uric acid]
- pKa [1]: 3.89
